# Molecular target: T1, human glucagon receptor (Homo sapiens, UniProt P47871)
# T1 construct: expressed in transfected cells; host or cells: BHK (baby hamster kidney) cells
# Assay: Glucagon Binding Assay (III)
# Conditions: BHK cell membranes, WGA SPA beads, 125I-glucagon; read-out: Glu Bd Assay (III) IC50
# Summary of the method: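 Membranes from BHK cells transfected with the human receptor, prepared at 4 °C, were used in a WGA-bead scintillation proximity binding format. Plates were shaken for 4 hours, left to settle 8–48 hours and then counted. Non-specific binding was defined with 500 nM glucagon.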
# T1 sequence (P47871 26-477): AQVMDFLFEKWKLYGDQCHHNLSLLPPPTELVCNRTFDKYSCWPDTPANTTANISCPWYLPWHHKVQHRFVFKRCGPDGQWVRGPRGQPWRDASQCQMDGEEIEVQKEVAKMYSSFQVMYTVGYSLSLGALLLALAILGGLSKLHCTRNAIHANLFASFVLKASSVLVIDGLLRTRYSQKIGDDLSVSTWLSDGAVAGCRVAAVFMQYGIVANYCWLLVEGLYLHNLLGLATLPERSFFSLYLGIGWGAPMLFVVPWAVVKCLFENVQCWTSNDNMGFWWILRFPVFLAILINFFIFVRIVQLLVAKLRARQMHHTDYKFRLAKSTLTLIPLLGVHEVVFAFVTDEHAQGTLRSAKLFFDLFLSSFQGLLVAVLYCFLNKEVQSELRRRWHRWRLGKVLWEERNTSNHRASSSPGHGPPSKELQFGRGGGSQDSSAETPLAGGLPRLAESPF
row,IC50 [nM],SMILES
1,819,"CC(C)(C)c1ccc(N(Cc2ccc(C(=O)Nc3nn[nH]n3)cc2)C(=O)/C=C/c2c(Cl)cccc2Cl)cc1 [Example 479, 4-({(4-tert-butylphenyl)-[3-(2,6-dichlorophenyl)acryloyl]amino}methyl)-N-(2H-tetrazol-5-yl)benzamide]"
2,324,"O=C(O)CCNC(=O)c1ccc(CN(Cc2ccc(C(F)(F)F)cc2)Cc2ccc(C(F)(F)F)cc2)cc1 [Example 384, 3-(4-{[Bis(4-trifluoromethylbenzyl)amino]methyl}benzoylamino)propionic acid]"
3,1500,"CCCCC(CC)CN(Cc1ccc(C(=O)NCCC(=O)O)cc1)C(=O)Nc1cccc(C(F)(F)F)c1 (stereo not shown) [Example 21, 3-{4-[1-(2-Ethylhexyl)-3-(3-trifluoromethylphenyl)ureidomethyl]benzoylamino}propionic acid]"
4,13,"Cc1cc(NC(=O)N(Cc2ccc(C(=O)Nc3nn[nH]n3)cc2)c2ccc(C3=CCCCC3)cc2)cc(C(F)(F)F)c1 [Example 362, 4-[1-(4-Cyclohex-1-enylphenyl)-3-(3-methyl-5-trifluoromethylphenyl)ureidomethyl]-N-(2H-tetrazol-5-yl)benzamide]"
5,27,"CC(C)(C)C1CCC(N(Cc2ccc(C(=O)NCCC(=O)O)cc2)C(=O)Nc2ccc(Oc3ccccc3)cc2)CC1 (stereo not shown) [Example 17, 3-{4-[1-(4-tert-Butylcyclohexyl)-3-(4-phenoxyphenyl)ureidomethyl]benzoylamino}propionic acid]"
6,880,CC(Oc1ccc(OC(F)(F)F)cc1)C(=O)N(Cc1ccc(C(=O)Nc2nn[nH]n2)cc1)c1ccc(C2CCCCC2)cc1 (stereo not shown) [Example 493]
7,66,"COc1cccc2cc(C(C)NC(=O)N(Cc3ccc(C(=O)Nc4nn[nH]n4)cc3)c3ccc(C4CCCCC4)cc3)ccc12 (stereo not shown) [Example 379, 4-{1-(4-Cyclohexylphenyl)-3-[1-(5-methoxynaphthalen-2-yl)ethyl]ureidomethyl}-N-(2H-tetrazol-5-yl)benzamide]"
8,1730,"CCNC(=O)c1cccc(NC(=O)N(Cc2ccc(C(=O)Nc3nn[nH]n3)cc2)c2ccc(C(C)(C)C)cc2)c1 [Example 460, N-Ethyl-3-{3-(4-tert-butylphenyl)-3-[4-(2H-tetrazol-5-ylcarbamoyl)benzyl]ureido}benzamide]"
9,94,"CC(C)(C)C1CCC(N(Cc2ccc(C(=O)Nc3nn[nH]n3)cc2)C(=O)/C=C/c2c(Cl)cccc2Cl)CC1 (stereo not shown) [Example 503, 4-({(4-tert-Butylcyclohexyl)-[3-(2,6-dichlorophenyl)acryloyl]amino}methyl)-N-(2H-tetrazol-5-yl)benzamide]"
10,129,"O=C(O)CCNC(=O)c1ccc(CN(C(=O)Nc2cc(C(F)(F)F)cc(C(F)(F)F)c2)C2CCC3(CCCCC3)CC2)cc1 [Example 614, 3-{4-[3-(3,5-Bis(trifluoromethyl)phenyl)-1-spiro[5.5]undec-3-ylureidomethyl]benzoylamino}propionic acid]"
11,27,"CCSc1cccc(NC(=O)N(Cc2ccc(C(=O)Nc3nn[nH]n3)cc2)c2ccc(C3CCCCC3)cc2)c1 [Example 289, 4-[1-(4-Cyclohexylphenyl)-3-(3-ethylsulfanylphenyl)ureidomethyl]-N-(2H-tetrazol-5-yl)benzamide]"
12,16,"CC(C)(C)c1ccc(N(Cc2ccc(C(=O)Nc3nn[nH]n3)cc2)C(=O)Nc2cc(Br)cc(C(F)(F)F)c2)cc1 [Example 263, 4-[3-(3-Bromo-5-trifluoromethylphenyl)-1-(4-tert-butylphenyl)ureidomethyl]-N-(2H-tetrazol-5-yl)benzamide]"
13,645,"CC(C)(C)C1CCC(N(Cc2ccc(C(=O)NCCC(=O)O)cc2)C(=O)Nc2ccc(C(F)(F)F)cc2)CC1 (stereo not shown) [Example 63, 3-{4-[1-(4-tert-Butylcyclohexyl)-3-(4-trifluoromethylphenyl)ureidomethyl]benzoylamino}propionic acid]"
14,197,"O=C(Nc1nn[nH]n1)c1ccc(CN(C(=O)Nc2cccc(SC3CCCC3)c2)c2ccc(C3CCCCC3)cc2)cc1 [Example 300, 4-[1-(4-Cyclohexylphenyl)-3-(3-cyclopentylsulfanylphenyl)ureidomethyl]-N-(2H-tetrazol-5-yl)benzamide]"
15,2800,"CCN(CCC(=O)O)C(=O)c1ccc(CN(C(=O)Nc2ccc(OC(F)(F)F)cc2)C2CCC(C(C)(C)C)CC2)cc1 (stereo not shown) [Example 91, 3-({4-[1-(4-tert-Butylcyclohexyl)-3-(4-trifluoromethoxyphenyl)ureidomethyl]benzoyl}ethylamino)propionic acid]"
16,116,O=C(Nc1nn[nH]n1)c1ccc(CN(C(=O)Nc2cccc(S(=O)(=O)CC3CC3)c2)c2ccc(C3CCCCC3)cc2)cc1 [Example 470]
17,41,"CN(c1ccccc1)S(=O)(=O)c1cccc(NC(=O)N(Cc2ccc(C(=O)NCCC(=O)O)cc2)c2ccc(C3CCCCC3)cc2)c1 [Example 322, 3-(4-{1-(4-cyclohexylphenyl)-3-[3-(methylphenylsulfamoyl)phenyl]ureidomethyl}benzoylamino)propionic acid]"
18,1700,"CC(C)Oc1ccc(C(=O)N(Cc2ccc(C(=O)NCCC(=O)O)cc2)C2CCC(C(C)(C)C)CC2)cc1 (stereo not shown) [Example 526, 3-(4-{[(4-tert-Butylcyclohexyl)-(4-isopropoxybenzoyl)amino]methyl}benzoylamino)propionic acid]"
19,337,"CCCCOC(=O)c1ccc(NC(=O)N(Cc2ccc(C(=O)NCCC(=O)O)cc2)CC(c2ccccc2)c2ccccc2)cc1 [Example 54, 4-[3-[4-(2-Carboxyethylcarbamoyl)benzyl]-3-(2,2-diphenylethyl)ureido]benzoic acid butyl ester]"
20,61,"CS(=O)(=O)c1cccc(NC(=O)N(Cc2ccc(C(=O)Nc3nn[nH]n3)cc2)c2ccc(C3=CCCCC3)cc2)c1 [Example 310, 4-[1-(4-Cyclohex-1-enylphenyl)-3-(3-methylsulfonylphenyl)ureidomethyl]-N-(2H-tetrazol-5-yl)benzamide]"
21,21,"O=C(Nc1nn[nH]n1)c1ccc(CN(C(=O)Nc2cccc(C(F)(F)F)c2)c2ccc(C3=CCCCC3)cc2)cc1 [Example 326, 4-[1-(4-Cyclohex-1-enylphenyl)-3-(3-trifluoromethylphenyl)ureidomethyl]-N-(2H-tetrazol-5-yl)benzamide]"
22,43,"CCC(C)(C)C1CCC(N(Cc2ccc(C(=O)NCCC(=O)O)cc2)C(=O)Nc2ccc(OC(F)(F)F)cc2)CC1 (stereo not shown) [Example 87, 3-{4-[1-[4-(1,1-Dimethylpropyl)cyclohexyl]-3-(4-trifluoromethoxyphenyl)ureidomethyl]benzoylamino}propionic acid]"
23,1800,"CC(C)(C)C1CCC(N(Cc2ccc(C(=O)NCCC(=O)O)cc2)C(=O)NCCc2cccs2)CC1 (stereo not shown) [Example 23, 3-{4-[1-(4-tert-Butylcyclohexyl)-3-(2-thiophen-2-ylethyl)ureidomethyl]benzoylamino}propionic acid]"
24,48,"CCCCOC(=O)c1ccc(NC(=O)N(Cc2ccc(C(=O)NCCC(=O)O)cc2)C2CCC(C(C)(C)C)CC2)cc1 (stereo not shown) [Example 61, 4-{3-(4-tert-Butylcyclohexyl)-3-[4-(2-carboxyethylcarbamoyl)benzyl]ureido}benzoic acid butyl ester]"
25,1680,"CC(=O)c1ccc(NC(=O)N(Cc2ccc(C(=O)NCCC(=O)O)cc2)C2CCC(C(C)(C)C)CC2)cc1 (stereo not shown) [Example 32, 3-{4-[1-(4-tert-Butylcyclohexyl)-3-(4-acetylphenyl)ureidomethyl]benzoyl}aminopropionic acid]"
26,84,"O=C(Nc1nn[nH]n1)c1ccc(CN(C(=O)Nc2ccccc2)c2ccc(C3CCCCC3)cc2)cc1 [Example 279, 4-[1-(4-Cyclohexylphenyl)-3-phenylureidomethyl]-N-(2H-tetrazol-5-yl)benzamide]"
27,52,"CC(C)(C)c1ccc(N(Cc2ccc(C(=O)Nc3nn[nH]n3)cc2)C(=O)Nc2cccc([N+](=O)[O-])c2)cc1 [Example 287, 4-[1-(4-tert-Butylphenyl)-3-(3-nitrophenyl)ureidomethyl]-N-(2H-tetrazol-5-yl)benzamide]"
28,126,"O=C(O)CCNC(=O)c1ccc(CN(CCC(c2ccccc2)c2ccccc2)C(=O)Nc2ccc(OC(F)(F)F)cc2)cc1 [Example 18, 3-{4-[1-(3,3-Diphenylpropyl)-3-(4-trifluoromethoxyphenyl)ureidomethyl]benzoylamino}propionic acid]"
29,841,"CC(C)(C)c1ccc(N(Cc2ccc(C(=O)Nc3nn[nH]n3)cc2)C(=O)Nc2cccc(C(=O)Oc3c(F)c(F)c(F)c(F)c3F)c2)cc1 [Example 457, 3-{3-(4-tert-Butylphenyl)-3-[4-(2H-tetrazol-5-ylcarbamoyl)benzyl]ureido}benzoic acid pentafluorophenyl ester]"
30,83,"CC(=O)c1ccc(NC(=O)N(Cc2ccc(C(=O)NCCC(=O)O)cc2)C2CCC(C(C)(C)C)CC2)cc1 (stereo not shown) [Example 60, 3-{4-[3-(4-Acetylphenyl)-1-(4-tert-butylcyclohexyl)ureidomethyl]benzoylamino}propionic acid]"

row,SMILES,IC50 [nM]
1,CS(=O)(=O)c1ccc(OC(=O)N(Cc2ccc(C(=O)Nc3nn[nH]n3)cc2)c2ccc(C3CCCCC3)cc2)cc1 [Example 622],4600
2,"CCCCOc1ccc(NC(=O)N(Cc2ccc(C(=O)NCCC(=O)O)cc2)C2CCC(C(C)(C)C)CC2)cc1 (stereo not shown) [Example 69, 3-{4-[3-(4-Butoxyphenyl)-1-(4-tert-butyl-cyclohexyl)ureidomethyl]benzoylamino}propionic acid]",90
3,"CC(C)(C)C1CCC(N(Cc2ccc(C(=O)NCCC(=O)O)cc2)C(=O)Oc2cccc(OC(F)(F)F)c2)CC1 (stereo not shown) [Example 408, 3-(4-{[(4-tert-Butylcyclohexyl)-(3-trifluoromethoxyphenoxycarbonyl)amino]methyl}benzoylamino)propionic acid]",580

# Same assay, conditions: Glu Bd Assay (III) IC50 (nM), BHK cell membranes, WGA SPA beads, 125I-glucagon
row,SMILES,IC50 [nM]
1,"CC(C)(C)[C@H]1CC[C@H](N(Cc2ccc(C(=O)NCCC(=O)O)cc2)C(=O)Nc2ccc(OCC3CC3)cc2C(F)(F)F)CC1 [Example 250, 3-{4-[1-(trans-4-tert-Butylcyclohexyl)-3-(4-cyclopropylmethoxy-2-trifluoromethylphenyl)ureidomethyl]benzoylamino}propionic acid]",182

# Reference: patent US6875760B2 (Novo Nordisk A/S, priority 1999, dated 2005)
